In ChEMBL document CHEMBL1201862, “PubChem BioAssay data set” (2004):
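All cell lines were grown in 96-well plates and treated with compound for 48 hours. Abbreviation: GI50, concentration required for 50% inhibition of growth.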 Calls of active or inactive are those of the source. Cut-off read from the data, not from the text of the source: active = GI50 up to about 1.1 µM and inactive = higher.

How the values were obtained:
Assay in all cases: inhibition of tumour cell growth, NCI panel, 48 h
[1] = test system: HOP-92
[2] = test system: 786-0
[3] = test system: MOLT-4
[4] = test system: SF-295
[5] = test system: SNB-75
[6] = test system: TK-10
[7] = test system: SR
[8] = test system: OVCAR-5
[9] = test system: KM12
[10] = test system: CCRF-CEM
[11] = test system: HCT-15
[12] = test system: MDA-N
[13] = test system: RXF 393
[14] = test system: LOX IMVI
[15] = test system: SN12C
[16] = test system: COLO 205
[17] = test system: Hs-578T
[18] = test system: SNB-19
[19] = test system: IGROV-1
[20] = test system: NCI/ADR-RES

Measured: GI50

Cc1cc(O)c2c(c1O)C(=O)c1c(O)ccc(O)c1C2=O [Cynodontin]
inactive: [1] > 100 µM | [2] 82 µM | [3] > 100 µM | [4] > 100 µM | [5] 52.5 µM | [6] > 100 µM | [7] > 100 µM | [8] > 100 µM | [9] > 100 µM | [10] > 100 µM | [12] > 100 µM | [13] > 100 µM | [14] > 100 µM | [15] > 100 µM | [16] > 100 µM | [17] > 100 µM | [18] > 100 µM | [19] > 100 µM | [20] > 100 µM
> 100 µM: [11]

Nc1ccc(Oc2ccc(C3(c4ccc(Oc5ccc(N)cc5)cc4)C4CC5CC(C4)CC3C5)cc2)cc1
4.94 µM: [11]
inactive: [1] 11.5 µM | [2] 4.57 µM | [3] 4.27 µM | [4] 6.76 µM | [5] 54 µM | [6] 22.8 µM | [7] 3.42 µM | [8] 19.9 µM | [9] 3.77 µM | [10] 3.03 µM | [12] 6.32 µM | [13] 6.3 µM | [14] 7.31 µM | [15] 6.28 µM | [16] 3.72 µM | [17] > 22.1 µM | [18] 21.4 µM | [19] 12.8 µM | [20] 15.8 µM

Cc1ccc(/C=C2\N=C(N3CCCC(CO)C3)NC2=O)cc1 (stereo not given)
> 100 µM: [11]
inactive: [1] > 100 µM | [2] > 100 µM | [3] > 100 µM | [4] > 100 µM | [5] > 100 µM | [6] > 100 µM | [7] > 100 µM | [8] > 100 µM | [9] > 100 µM | [10] > 100 µM | [12] > 100 µM | [13] > 100 µM | [14] > 100 µM | [15] > 100 µM | [16] > 100 µM | [17] > 100 µM | [18] > 100 µM | [19] > 100 µM | [20] > 100 µM

C=CCc1cc(C(Cc2ccccc2)NC(C)C)cc(OCc2ccccc2)c1OCc1ccccc1 (stereo not given)
inactive: [1] 12.5 µM | [2] 16.6 µM | [3] 10.7 µM | [4] 17.8 µM | [5] 13.2 µM | [6] 17.1 µM | [7] 12.2 µM | [8] 19.1 µM | [9] 20.7 µM | [10] 15.9 µM | [12] 13.2 µM | [13] 14.4 µM | [14] 14.8 µM | [15] 15.6 µM | [16] 17.3 µM | [17] 18 µM | [18] 15.3 µM | [19] 15.8 µM | [20] 16.3 µM
16.3 µM: [11]

N#Cc1c(-c2ccccc2)[nH]c2ccc(Cl)cc2c1=O
> 100 µM: [11]
inactive: [1] 22.9 µM | [2] 30.5 µM | [3] > 100 µM | [4] 22.4 µM | [5] 44.7 µM | [6] 29.7 µM | [7] > 100 µM | [8] > 100 µM | [9] > 100 µM | [10] > 100 µM | [12] > 100 µM | [13] 20.7 µM | [14] > 100 µM | [15] > 100 µM | [16] > 100 µM | [17] 34.8 µM | [18] 22.9 µM | [19] 63.1 µM | [20] 92.9 µM

COc1ccc2c(c1)CCCC(Br)C2=O (stereo not given)
active: [3] 0.136 µM | [7] 0.294 µM | [10] 0.337 µM | [14] 0.379 µM
0.929 µM: [11]
inactive: [1] 7.57 µM | [2] 4.15 µM | [4] 3.99 µM | [5] 12.6 µM | [6] 4.21 µM | [8] 5.92 µM | [9] 3.24 µM | [12] 2.88 µM | [13] 4.78 µM | [15] 2.75 µM | [16] 3.44 µM | [17] 17.1 µM | [18] 8.18 µM | [19] 1.51 µM | [20] 4.34 µM

CC(C)c1ccc(C(c2c(O)oc3ccccc3c2=O)c2c(O)oc3ccccc3c2=O)cc1
inactive: [1] 7.85 µM | [2] 21.1 µM | [3] 6.55 µM | [4] 20 µM | [5] 25.9 µM | [6] 24.6 µM | [7] 9.64 µM | [8] 17.6 µM | [9] 19.5 µM | [10] 11.6 µM | [12] 21.5 µM | [13] 21.8 µM | [14] 17.7 µM | [15] 19.4 µM | [16] 18.7 µM | [17] 25.6 µM | [18] 20.6 µM | [19] 24.8 µM | [20] 22.3 µM
19.1 µM: [11]
